From patent EP0186365A2, “Preparation of alcohols” (UNITED KINGDOM ATOMIC ENERGY AUTHORITY, priority 1984, dated 1986) come the findings set out here.

The target in test [1] is T1, YADH (Saccharomyces cerevisiae, UniProt P00330).
T1 sequence (P00330 1-348): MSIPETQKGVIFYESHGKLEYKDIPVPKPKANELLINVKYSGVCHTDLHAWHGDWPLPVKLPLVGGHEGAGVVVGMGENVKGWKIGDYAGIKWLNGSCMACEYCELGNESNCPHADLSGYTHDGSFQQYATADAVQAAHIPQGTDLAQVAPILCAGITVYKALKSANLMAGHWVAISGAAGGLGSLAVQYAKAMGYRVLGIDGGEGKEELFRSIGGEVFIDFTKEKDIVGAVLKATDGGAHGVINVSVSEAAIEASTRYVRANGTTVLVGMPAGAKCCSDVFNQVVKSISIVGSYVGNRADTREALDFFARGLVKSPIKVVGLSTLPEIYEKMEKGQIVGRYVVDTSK
Put plainly: Inhibition/inactivation of YADH in solution by incubation with aldehyde. It is filed as biochemical, yeast. The source says: The enzymatic reduction of aldehydes may, however, present a serious problem due to the aldehyde, whilst being a substrate for the enzyme, being a potent irreversible inhibitor.

Test [2] has as its target T2, Horse liver alcohol dehydrogenase or HLADH (Equus caballus, UniProt P00327).
T2 construct: whether it is derived from yeast (i.e. is a YADH) from horse liver (HLADH), or from another source; from tissue; host or cells: horse liver
Put plainly: Example 4: activity of immobilised HLADH in the reduction of aldehydes (NADH absorbance decrease at 380 nm). Type of test: biochemical. As to conditions: aldehyde as substrate (2mM), NADH (1mM), pH 7.0, 22 °C, initial rate over 2 minutes. The method, then: Horse liver alcohol dehydrogenase or HLADH (50 mg; 1 U/mg) was reacted with swelled CNBr-activated Sepharose 4B (Registered Trade Mark) beads (0.8 g).
The activity of the immobilised enzyme in the reduction of aldehydes to alcohols was determined in coupling buffer (0.1 M; pH 7.0) at 22 (+2)°C as the initial rate of decrease in absorbance at 380 nm over a 2 minute time period using NADH (lmM) and aldehyde (2mM).

Test [3] deals with T1, YADH. Briefly: Example 3 (ii): inhibition of soluble YADH after pre-incubation with aldehyde. It is filed as biochemical, yeast. As to conditions: soluble enzyme; 2 mM aldehyde, 60 min, 22 °C, then dialysis; assayed with trans-cinnamaldehyde (5 mM). The protocol: By way of comparison, stock enzyme solution (800 µ1; 0.2 mg protein/ml) was incubated with cinnamaldehyde (200 µ1; 10 mM). This also gave a final aldehyde concentration of 2 mM and a protein concentration of 0.16 mg/ml. The reaction mixture was incubated at 22 (+2)^OC for 60 min with continuous gentle agitation. After incubation, the soluble enzyme was dialysed against coupling buffer (30 ml; 0.lM) at 4°C for 21/2 hours with one change of buffer. Enzyme activity was assayed immediately after dialysis using trans-cinnamaldehyde (5 mM) as assay substrate with a protein concentration of 0.2 mg/ml.

For test [4], the target named is T3, immobilised HLADH (Equus caballus, UniProt P00327).
T3 construct: whether it is derived from yeast (i.e. is a YADH) from horse liver (HLADH), or from another source; from tissue; host or cells: horse liver
T3 sequence (P00327 whole entry): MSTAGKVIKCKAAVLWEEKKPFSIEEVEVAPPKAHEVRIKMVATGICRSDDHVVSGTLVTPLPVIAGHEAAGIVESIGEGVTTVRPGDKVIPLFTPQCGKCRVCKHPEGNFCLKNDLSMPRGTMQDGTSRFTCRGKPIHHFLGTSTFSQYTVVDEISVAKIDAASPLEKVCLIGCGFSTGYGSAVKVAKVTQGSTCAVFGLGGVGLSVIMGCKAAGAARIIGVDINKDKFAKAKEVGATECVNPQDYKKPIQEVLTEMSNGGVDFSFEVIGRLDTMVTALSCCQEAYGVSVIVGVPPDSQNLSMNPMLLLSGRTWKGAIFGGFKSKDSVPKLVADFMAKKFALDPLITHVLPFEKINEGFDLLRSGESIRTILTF
Briefly: Example 5: inhibition of immobilised HLADH by aldehydes. The following applies: (b) immobilised HLADH; assay using the aldehyde used in pre-incubation. Type of test: biochemical, horse. The method, then:
(§1) In order to test the inhibition of the immobilised enzyme by aldehyde, the beads (50 - 60 µl) were incubated with trans-cinnamaldehyde ([…]; 10 mM) and a coupling buffer (3.95 ml; pH 7.0). This gave a final aldehyde concentration of 2 mM and a protein concentration of 0.16 mg/ml. The reaction mixture was incubated at 22 (+2)°C for 60 min with continuous gentle agitation. The immobilised enzyme was washed three times in coupling buffer (10 ml) at 22 (+2)C and resuspended in eight times of its original volume in coupling buffer. Enzyme activity was assayed immediately after washing using trans-cinnamaldehyde (5 mM) as assay substrate with a protein concentration of 0.2 mg/ml.
Horse liver alcohol dehydrogenase or HLADH (50 mg; 1 U/mg) was reacted with swelled CNBr-activated Sepharose 4B (Registered Trade Mark) beads (0.8 g). Approximately 90% of the enzyme was thus immobilised.
The inhibition of the immobilised enzyme (prepared as in Example 4) by aldehydes was tested and compared with the soluble enzyme as described in Example 3. The results were as follows:
(a) assaying using trans-cinnamaldehyde following pre-incubation using a different aldehyde
(b) assaying using the aldehyde used in pre-incubation

Test [5] addresses T1, YADH. Briefly: Example 3 (i): inhibition of immobilised YADH after pre-incubation with aldehyde. Type of test: biochemical, yeast. The following applies: immobilised enzyme; 2 mM aldehyde, 60 min, 22 °C, then washing; assayed with trans-cinnamaldehyde (5 mM). The method, then: YADH (15 mg; 200U/mg) was reacted with swelled CNBr-activated Sepharose 4B (Registered Trade Mark) beads (0.4 g; ex Pharmacia) and coupling carried out in sodium phosphate buffer (0.1M; pH 7.0) containing KCl (0.5 M) for 18 hours at 4°C. Approximately 90% of the enzyme was thus immobilised.
as §1

The mark [6] stands for this setting: solution of the enzyme incubated with 5 mM aldehyde.

T2 sequence (P00327 whole entry): as above

On to `OCC=Cc1ccccc1` [cinnamyl alcohol], for which the inhibitory effect entry in test [1] (even at 8 mM) is “no inhibitory effect”.

Turning to `CC(C)c1ccc(C=O)cc1` [p-cuminaldehyde], the activity in test [2] is recorded as 0.94 micromoles NADH/min/mg protein.

For `O=CC=Cc1ccccc1` [cinnamaldehyde], testing at 2000 µM in test [3] gave an inhibition of 90%. Further, in test [1] (setting [6]), the “time to 50% inhibition” value came out at 12 min and the “time to total inhibition” value is on record as “about 30 minutes”.

For the molecule `COc1ccc(C=O)cc1` [p-anisaldehyde], the activity in test [2] is recorded as 1.55 micromoles NADH/min/mg protein.

Regarding `O=Cc1ccc(O)cc1` [p-hydroxybenzaldehyde], the activity in test [2] is on record as 0.94 micromoles NADH/min/mg protein.

Consider `O=Cc1ccc2c(c1)OCO2` [piperonaldehyde], for which the activity in test [2] is given as 1.47 micromoles NADH/min/mg protein.

Take `O=Cc1ccccc1O` [salicylaldehyde]: the activity in test [2] was 0.57 micromoles NADH/min/mg protein.

As for `CC(C)=CCCC(C)CC=O` (centres unmarked) [citronellal], the activity in test [2] is listed as 0.75 micromoles NADH/min/mg protein. For the same molecule, in test [4], 2000 µM produced 11% inhibition.

For the molecule `O=C/C=C/c1ccccc1` [trans-cinnamaldehyde], the activity in test [2] is reported as 1.36 micromoles NADH/min/mg protein. Moreover, 2000 µM produced 50% inhibition in test [5].

`CC(C)=CCCC(C)=CC=O` [citral]: in test [2], the activity is reported as 0.91 micromoles NADH/min/mg protein.
